Results on 28 compounds are retold here after EP4562004B1, “NOVEL 7-SUBSTITUTED INDOLE SULFONAMIDE DERIVATIVES” (F. Hoffmann-La Roche AG, priority 2022, dated 2024).

human GPR17 short isoform, sequence (Q13304 29-367): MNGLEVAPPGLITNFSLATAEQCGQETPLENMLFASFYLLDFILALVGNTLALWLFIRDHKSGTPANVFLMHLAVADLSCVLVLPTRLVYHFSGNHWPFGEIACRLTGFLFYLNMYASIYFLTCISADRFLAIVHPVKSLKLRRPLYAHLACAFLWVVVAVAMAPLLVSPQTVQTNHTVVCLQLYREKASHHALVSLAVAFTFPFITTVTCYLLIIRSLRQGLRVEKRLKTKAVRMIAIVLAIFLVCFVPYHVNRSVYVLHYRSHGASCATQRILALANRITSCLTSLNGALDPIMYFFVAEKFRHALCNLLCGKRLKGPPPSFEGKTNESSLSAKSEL

This experiment addresses human GPR17 short isoform (Homo sapiens, UniProt Q13304). The experiment is described as follows: GPR17 cAMP assay (antagonist mode, TR-FRET cAMP detection). The format is cell-based. The settings on record: CHO-K1 cells stably expressing human GPR17 short isoform; with EC80 concentration of agonist MDL29,951, IBMX 0.5mM, forskolin 15µM; normalized to reference antagonist; read-out: hGPR17 cAMP IC50. The method, then:
CHO-K1 cells stably expressing vector containing untagged human GPR17 short isoform (Roche) were cultured at 37°C / 5% CO2 in DMEM (Dulbecco's Modified Eagle Medium):F-12 (1:1) supplemented with 10% foetal bovine serum and 400 µg/ml Geneticin.
Changes in intracellular cyclic adenosine monophosphate (cAMP) levels were quantified using the Nano-TRF Detection Assay kit (Roche Diagnostics, Cat. No. 05214386001). This assay allows for direct cAMP quantification in a homogeneous solution. cAMP is detected based on time-resolved fluorescence energy transfer (TR-FRET) and competitive binding of ruthenylated cAMP and endogenous cAMP to an anti-cAMP monoclonal antibody labeled with AlexaFluor-700. The Ruthenium complex serves as the FRET donor and transfers energy to AlexaFluor-700. The FRET signal is inversely proportional to the cAMP concentration.
CHO-GPR17S cells were detached with Accutase and resuspended in assay buffer consisting of Hank's Balanced Salt Solution (HBSS), 10mM HEPES (4-(2-hydroxyethyl) piperazine-1-ethanesulfonic acid solution) and 0.1% bovine serum albumin (pH 7.4). The cells were seeded in black 384-well plates (Corning) at a density of 10'000 cells / 20µl assay buffer until the addition of compounds.
Test antagonist compounds were serially diluted in dimethyl sulfoxide (DMSO) and spotted in 384-well plates. The compounds were then diluted in HBSS buffer supplemented with an EC80 concentration of MDL29,951 (3-(2-Carboxy-4,6-dichloroindol-3-yl)propionic acid) (GPR17 agonist) plus 3-Isobutyl-1-methylxanthine (IBMX) (0.5mM final concentration) and added to the cells at room temperature. Forskolin (15µM final concentration) was added 5 minutes after the test compounds and the cells were incubated at room temperature for 30 minutes. The assay was stopped by adding cAMP detection mix (containing detergents for cell lysis) for 90 minutes at room temperature.
Cellular cAMP was measured using a Paradigm reader (Molecular Devices). The raw data was used to calculate the FRET signal based on the assay's P-factor as per cAMP kit instructions. The data was normalized to the maximal activity of a reference antagonist and dose response curves were fitted to the percent activity of the test compounds using a sigmoidal dose response model (Genedata Screener).
Results in the hGPR17 cAMP assay are provided for compounds of formula I in Table 1 Table 1: […]
The term IC50 denotes the concentration that gives 50% inhibition. `COc1nc(NS(=O)(=O)c2c[nH]c3c(-n4ccc(C)n4)cccc23)nc(OC)c1CC(F)F` [Example 1, N-[5-(2,2-difluoroethyl)-4,6-dimethoxy-pyrimidin-2-yl]-7-(3-methylpyrazol-1-yl)-1H-indole-3-sulfonamide]: the half-inhibitory concentration (IC50) worked out at 68 nM.

In the case of `COc1nc(NS(=O)(=O)c2c[nH]c3c(-n4nc(C)cc4C)cccc23)nc(OC)c1CC(F)F` [Example 2, N-[5-(2,2-difluoroethyl)-4,6-dimethoxy-pyrimidin-2-yl]-7-(3,5-dimethylpyrazol-1-yl)-1H-indole-3-sulfonamide], the IC50 turned out to be 32 nM.

With `COc1nc(NS(=O)(=O)c2c[nH]c3c(-n4ccnc4)cccc23)nc(OC)c1CC(F)F` [Example 3, N-[5-(2,2-difluoroethyl)-4,6-dimethoxy-pyrimidin-2-yl]-7-imidazol-1-yl-1H-indole-3-sulfonamide], the half-inhibitory concentration (IC50) was 300 nM.

Take `COc1nc(NS(=O)(=O)c2c[nH]c3c(-n4cccn4)c(Cl)ccc23)nc(OC)c1CC(F)F` [Example 4, 6-chloro-N-[5-(2,2-difluoroethyl)-4,6-dimethoxy-pyrimidin-2-yl]-7-pyrazol-1-yl-1H-indole-3-sulfonamide]: the 50% inhibitory concentration (IC50) was 22 nM.

As to `COc1nc(NS(=O)(=O)c2c[nH]c3c(-n4ccnc4C)cccc23)nc(OC)c1CC(F)F` [Example 5, N-[5-(2,2-difluoroethyl)-4,6-dimethoxy-pyrimidin-2-yl]-7-(2-methylimidazol-1-yl)-1H-indole-3-sulfonamide], the half-maximal inhibitory concentration (IC50) was determined as 48 nM.

Consider `COc1nc(NS(=O)(=O)c2c[nH]c3c(-n4ccnc4)c(Cl)ccc23)nc(OC)c1OCC(F)F` [Example 6, 6-chloro-N-[5-(2,2-difluoroethoxy)-4,6-dimethoxy-pyrimidin-2-yl]-7-imidazol-1-yl-1H-indole-3-sulfonamide], for which the IC50 is 50 nM.

Consider `COc1nc(NS(=O)(=O)c2c[nH]c3c(-n4nccn4)c(Cl)ccc23)nc(OC)c1CC(F)F` [Example 7, 6-chloro-N-[5-(2,2-difluoroethyl)-4,6-dimethoxy-pyrimidin-2-yl]-7-(triazol-2-yl)-1H-indole-3-sulfonamide], for which the IC50 turned out to be 21 nM.

Turning to `COc1nc(NS(=O)(=O)c2c[nH]c3c(-n4ccnc4)c(Cl)ccc23)ncc1CC(F)F` [Example 8, 6-chloro-N-[5-(2,2-difluoroethyl)-4-methoxy-pyrimidin-2-yl]-7-imidazol-1-yl-1H-indole-3-sulfonamide], the IC50 is 248 nM.

Regarding `COc1nc(NS(=O)(=O)c2c[nH]c3c(-n4nccn4)c(Cl)ccc23)nc(OC)c1OCC(F)F` [Example 9, 6-chloro-N-[5-(2,2-difluoroethoxy)-4,6-dimethoxy-pyrimidin-2-yl]-7-(triazol-2-yl)-1H-indole-3-sulfonamide], the half-inhibitory concentration (IC50) was determined as 32 nM.

Take `COc1nc(NS(=O)(=O)c2c[nH]c3c(-n4cnnc4)c(Cl)ccc23)nc(OC)c1CC(F)F` [Example 10, 6-chloro-N-[5-(2,2-difluoroethyl)-4,6-dimethoxy-pyrimidin-2-yl]-7-(1,2,4-triazol-4-yl)-1H-indole-3-sulfonamide]: the 50% inhibitory concentration (IC50) was found to be 100 nM.

Turning to `COc1nc(NS(=O)(=O)c2c[nH]c3c(-n4nccn4)c(C(F)F)ccc23)nc(OC)c1OCC(F)F` [Example 11, N-[5-(2,2-difluoroethoxy)-4,6-dimethoxy-pyrimidin-2-yl]-6-(difluoromethyl)-7-(triazol-2-yl)-1H-indole-3-sulfonamide], the IC50 was determined as 74 nM.

In the case of `COc1nc(NS(=O)(=O)c2c[nH]c3c(-n4nccn4)c(Cl)ccc23)ncc1OCCF` [Example 12, 6-chloro-N-[5-(2-fluoroethoxy)-4-methoxy-pyrimidin-2-yl]-7-(triazol-2-yl)-1H-indole-3-sulfonamide], the IC50 stood at 52 nM.

Take `COc1nc(NS(=O)(=O)c2c[nH]c3c(-n4nccn4)cccc23)nc(OC)c1CC(F)F` [Example 13, N-[5-(2,2-difluoroethyl)-4,6-dimethoxy-pyrimidin-2-yl]-7-(triazol-2-yl)-1H-indole-3-sulfonamide]: the half-maximal inhibitory concentration (IC50) came out at 203 nM.

Consider `COc1nc(NS(=O)(=O)c2c[nH]c3c(-n4nccn4)c(Cl)ccc23)nc(OC)c1OCCF` [Example 14, 6-chloro-N-[5-(2-fluoroethoxy)-4,6-dimethoxy-pyrimidin-2-yl]-7-(triazol-2-yl)-1H-indole-3-sulfonamide], for which the IC50 was found to be 28 nM.

As to `COc1nc(NS(=O)(=O)c2c[nH]c3c(-n4nccn4)c(Cl)ccc23)nc(OC)c1OC(F)F` [Example 15, 6-chloro-N-[5-(difluoromethoxy)-4,6-dimethoxy-pyrimidin-2-yl]-7-(triazol-2-yl)-1H-indole-3-sulfonamide], the IC50 was found to be 25 nM.

`COc1nc(NS(=O)(=O)c2c[nH]c3c(-n4nccn4)c(Cl)ccc23)nc(OC)c1CC(F)CF` (stereo not shown) [Example 16, 6-chloro-N-[5-(2,3-difluoropropyl)-4,6-dimethoxy-pyrimidin-2-yl]-7-(triazol-2-yl)-1H-indole-3-sulfonamide]: the half-inhibitory concentration (IC50) worked out at 24 nM.

For the compound `COc1nc(NS(=O)(=O)c2c[nH]c3c(-n4nccn4)c(Cl)ccc23)nc(OC)c1CCC(F)F` [Example 17, 6-chloro-N-[5-(3,3-difluoropropyl)-4,6-dimethoxy-pyrimidin-2-yl]-7-(triazol-2-yl)-1H-indole-3-sulfonamide], the half-inhibitory concentration (IC50) came out at 24 nM.

As to `COc1nc(NS(=O)(=O)c2c[nH]c3c(-n4nccn4)c(Cl)ccc23)nc(OC)c1C1CC1C#N` (stereo not shown) [Example 18, 6-chloro-N-[5-(2-cyanocyclopropyl)-4,6-dimethoxy-pyrimidin-2-yl]-7-(triazol-2-yl)-1H-indole-3-sulfonamide], the IC50 was 25 nM.

For `COc1nc(NS(=O)(=O)c2c[nH]c3c(-n4nccn4)cccc23)nc(OC)c1OCCF` [Example 19, N-[5-(2-fluoroethoxy)-4,6-dimethoxy-pyrimidin-2-yl]-7-(triazol-2-yl)-1H-indole-3-sulfonamide], the 50% inhibitory concentration (IC50) came to 316 nM.

Turning to `COc1nc(NS(=O)(=O)c2c[nH]c3c(-n4nccn4)cccc23)nc(OC)c1OCC(F)F` [Example 20, N-[5-(2,2-difluoroethoxy)-4,6-dimethoxy-pyrimidin-2-yl]-7-(triazol-2-yl)-1H-indole-3-sulfonamide], the 50% inhibitory concentration (IC50) is 447 nM.

Regarding `COc1nc(NS(=O)(=O)c2c[nH]c3c(-n4nccn4)cccc23)nc(OC)c1C1CC1C#N` (stereo not shown) [Example 21, N-[5-(2-cyanocyclopropyl)-4,6-dimethoxy-pyrimidin-2-yl]-7-(triazol-2-yl)-1H-indole-3-sulfonamide], the half-maximal inhibitory concentration (IC50) came to 195 nM.

For `COc1nc(NS(=O)(=O)c2c[nH]c3c(-n4nccn4)c(C)ccc23)nc(OC)c1CC(F)F` [Example 22, N-[5-(2,2-difluoroethyl)-4,6-dimethoxy-pyrimidin-2-yl]-6-methyl-7-(triazol-2-yl)-1H-indole-3-sulfonamide], the IC50 came out at 21 nM.

As for `COc1nc(NS(=O)(=O)c2c[nH]c3c(-n4nccn4)c(C)ccc23)nc(OC)c1OCCF` [Example 23, N-[5-(2-fluoroethoxy)-4,6-dimethoxy-pyrimidin-2-yl]-6-methyl-7-(triazol-2-yl)-1H-indole-3-sulfonamide], the 50% inhibitory concentration (IC50) came out at 35 nM.

In the case of `COc1nc(NS(=O)(=O)c2c[nH]c3c(-n4nccn4)c(C)ccc23)nc(OC)c1OC(F)F` [Example 24, N-[5-(difluoromethoxy)-4,6-dimethoxy-pyrimidin-2-yl]-6-methyl-7-(triazol-2-yl)-1H-indole-3-sulfonamide], the IC50 stood at 38 nM.

For `COc1nc(NS(=O)(=O)c2c[nH]c3c(-n4nccn4)c(C)ccc23)nc(OC)c1OCC(F)F` [Example 25, N-[5-(2,2-difluoroethoxy)-4,6-dimethoxy-pyrimidin-2-yl]-6-methyl-7-(triazol-2-yl)-1H-indole-3-sulfonamide], the concentration for half-maximal inhibition (IC50) turned out to be 34 nM.

For the compound `COc1nc(NS(=O)(=O)c2c[nH]c3c(-n4nccn4)c(C)ccc23)nc(OC)c1C1CC1C#N` (stereo not shown) [Example 26, N-[5-(2-cyanocyclopropyl)-4,6-dimethoxy-pyrimidin-2-yl]-6-methyl-7-(triazol-2-yl)-1H-indole-3-sulfonamide], the concentration for half-maximal inhibition (IC50) amounted to 25 nM.

Regarding `COc1nc(NS(=O)(=O)c2c[nH]c3c(-n4nccn4)c(Br)ccc23)nc(OC)c1CC(F)F` [Example 27, 6-bromo-N-[5-(2,2-difluoroethyl)-4,6-dimethoxy-pyrimidin-2-yl]-7-(triazol-2-yl)-1H-indole-3-sulfonamide], the IC50 amounted to 19 nM.

Turning to `COc1nc(NS(=O)(=O)c2c[nH]c3c(-n4nccn4)c(Br)ccc23)nc(OC)c1OCCF` [Example 28, 6-bromo-N-[5-(2-fluoroethoxy)-4,6-dimethoxy-pyrimidin-2-yl]-7-(triazol-2-yl)-1H-indole-3-sulfonamide], the IC50 was determined as 27 nM.
